Assay results as given in patent publication US20240008491A1, “PESTICIDE COMPOSITION FOR C[…] CROWN ROT AND APPLICATION” (priority 2022, published 2024).
Converted amounts (≈) assume the structure as drawn.

Test system: wheat crown rot
Assay: indoor toxicity test (growth rate method)
Assay type: cell-based
Details: toxicity to wheat crown rot
Description: The method of combining indoor toxicity test and field experiment is adopted.
First of all, co-toxicity coefficients of the complex pesticide of different proportions to wheat crown rot are obtained through indoor toxicity test (growth rate method); and then, the control effect is determined through field efficacy test, and the formula proportion and optimal application amount of the complex pesticide are determined.

Q: `C=CCOC(Cn1ccnc1)c1ccc(Cl)cc1Cl` (centres unmarked) [Imazalil (B), Imazalil] was tested. Which EC50 did it give?
A: 0.175 µg/mL (≈ 0.589 µM)

Q: How did the EC50 turn out when `OC(Cc1ccccc1Cl)(Cn1nc[nH]c1=S)C1(Cl)CC1` (centres unmarked) [Prothioconazole (A), Prothioconazole] was run?
A: 1.37 µg/mL (≈ 3.98 µM)
